In patent publication US9486434B2, “Method for delivery and use of isothiocyanates for prophylaxis and/or therapy of bladder cancer” (Health Research Inc., priority 2010, dated 2016):

Test system: α-tubulin, β-tubulin, γ-tubulin, caspase-9, caspase-3, VEGF in UM-UC-3 cells
Assay: Western blotting in UM-UC-3 cells (tubulins, caspases, VEGF)
Assay type: cell-based, human
Conditions: 24 h
Experimental: FIG. 4. Effect of AITC on mitosis, tubulin expression and apoptosis in human bladder cancer UM-UC-3 cells. Cells were treated with vehicle or AITC for 24 h (each numerical value is mean±SD). A. Flow cytometry analysis for cell cycle arrest. B. Wright-Giemsa staining for counting mitotic figures. Arrows point to cells in mitosis or mitotic catastrophe. C. Immunofluorescent staining of microtubules (green color) and DNA staining with DAPI (blue color). D. Western blotting of tubulins (GAPDH as a loading control). E. Loss of mitochondrial transmembrane potential (Δψm) measured by flow cytometry. F. Western blotting of caspase-9 and caspase-3 (GAPDH as a loading control). G. Apoptotic cells (TUNEL cells) measured by flow cytometry. Cells in F and G were co-treated with or without 20 microM Z-LEHD-FMK (a caspase-9 inhibitor).
FIG. 8. Inhibition of bladder cancer development by MSP-1. Female F344 rats were inoculated with AY-27 cells intravesically via a urethra catheter to initiate development of orthotopic bladder cancer. Oral administration of MSP-1 of vehicle (water) once daily was started 1 day after cancer cell inoculation and ended 3 weeks later. The number of rats per group varied from 11-29. A. Initial (□) and final (▪) body weights. B. Tumor weight was calculated by subtracting the average normal bladder weight from tumor-bearing bladder weight. *P<0.05. Each value in A and B is mean±SEM. C. Percentage of bladder where the tumor invaded the muscle tissue. D. The effects of MSP-1 on selected anticancer targets in UM-UC-3 cells (in vitro), AY-27 cells (in vitro) and AY-27 tumors (in vivo). The cells were treated with MSP-1 at the sinigrin concentrations of 13 and 26 microM for 24 h. The bladder tumors were removed from rats treated with MSP-1 at the sinigrin doses of 9 or 90 micromols/kg once daily for 3 weeks, started 1 day after cancer cell inoculation. Cell lysates and tumor homogenates were analyzed by Western blotting, using GAPDH as a loading control.
Western blot analysis. […]

C=CCN=C=S [AITC, allyl isothiocyanate]
caspase-9 and caspase-3 activation: activation of both caspase-9 and caspase-3
α-tubulin and β-tubulin levels: significantly down regulated
